Measurements as given in PubChem BioAssay AID1963961 (Molecular Pharmacology Branch, DTP, NCI, 2024).

Tested on: K98450-129-R-PDC multicell spheroids, viability
Assay: Anticancer human tumor K98450-129-R-PDC patient-derived colon adenocarcinoma cell line growth inhibition [PI3K]
Conditions: for IC50: curve of first compound; for viability, T/C: stronger effect = lower value
Outline: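 Combination activity was assessed by viability in multicellular tumor spheroids carrying HUVEC and MSC components. Agents were tested with PI3K inhibitors from a Cmax-based top dose (or 10 microM) downward in half-log increments.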

[1] = second compound 0.00316 µM, first compound 0.0316 µM
[2] = second compound 0.00316 µM, first compound 0.1 µM
[3] = second compound 0.00316 µM, first compound 0.316 µM
[4] = second compound 0.00316 µM, first compound 1 µM
[5] = second compound 0.00316 µM, first compound 3.16 µM
[6] = second compound 0.00316 µM, first compound 10 µM
[7] = second compound 0.01 µM, first compound 0.0316 µM
[8] = second compound 0.01 µM, first compound 0.1 µM
[9] = second compound 0.01 µM, first compound 0.316 µM
[10] = second compound 0.01 µM, first compound 1 µM
[11] = second compound 0.01 µM, first compound 3.16 µM
[12] = second compound 0.01 µM, first compound 10 µM
[13] = second compound 0.0316 µM, first compound 0.0316 µM
[14] = second compound 0.0316 µM, first compound 0.1 µM
[15] = second compound 0.0316 µM, first compound 0.316 µM
[16] = second compound 0.0316 µM, first compound 1 µM
[17] = second compound 0.0316 µM, first compound 3.16 µM
[18] = second compound 0.0316 µM, first compound 10 µM
[19] = second compound 0.1 µM, first compound 0.0316 µM
[20] = second compound 0.1 µM, first compound 0.1 µM
[21] = second compound 0.1 µM, first compound 0.316 µM
[22] = second compound 0.1 µM, first compound 1 µM
[23] = second compound 0.1 µM, first compound 3.16 µM
[24] = second compound 0.1 µM, first compound 10 µM
[25] = second compound 0.316 µM, first compound 0.0316 µM
[26] = second compound 0.316 µM, first compound 0.1 µM
[27] = second compound 0.316 µM, first compound 0.316 µM
[28] = second compound 0.316 µM, first compound 1 µM
[29] = second compound 0.316 µM, first compound 3.16 µM
[30] = second compound 0.316 µM, first compound 10 µM
[31] = second compound 1 µM, first compound 0.0316 µM
[32] = second compound 1 µM, first compound 0.1 µM
[33] = second compound 1 µM, first compound 0.316 µM
[34] = second compound 1 µM, first compound 1 µM
[35] = second compound 1 µM, first compound 3.16 µM
[36] = second compound 1 µM, first compound 10 µM
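Further: spheroids exposed to agents for seven days before read-out.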

Which IC50 (second compound 0.00316 µM) does the source give for `C#Cc1c(F)ccc2cc(O)cc(-c3ncc4c(N5CC6CCC(C5)N6)nc(OCC56CCCN5CC(F)C6)nc4c3F)c12` (centres undefined) + CC(Nc1ccc2c(c1)OCCn1cc(N3C(=O)OCC3C(F)F)nc1-2)C(N)=O here?
The IC50 was over 10 µM.

And the IC50 (second compound 0.01 µM)?
Its IC50 is over 10 µM.

What about the IC50 (second compound 0.0316 µM) of the same compound?
Its IC50 is over 10 µM.

What about the IC50 (second compound 0.1 µM) of the same compound?
Its IC50 is over 10 µM.

And the IC50 (second compound 0.316 µM)?
The IC50 was over 10 µM.

And the IC50 (second compound 1 µM)?
Its IC50 is over 10 µM.

What about the viability, T/C [1] of the same compound?
The viability, T/C was 116%.

And the viability, T/C [2]?
Its viability, T/C is 101%.

What about the viability, T/C [3] of the same compound?
The viability, T/C was 104%.

What about the viability, T/C [4] of the same compound?
The viability, T/C was 96.2%.

And the viability, T/C [5]?
Its viability, T/C is 101%.

What about the viability, T/C [6] of the same compound?
The viability, T/C was 92.7%.

What about the viability, T/C [7] of the same compound?
The viability, T/C was 113%.

What about the viability, T/C [8] of the same compound?
The viability, T/C was 92.1%.

What about the viability, T/C [9] of the same compound?
The viability, T/C was 109%.

What about the viability, T/C [10] of the same compound?
Its viability, T/C is 95.2%.

And the viability, T/C [11]?
The viability, T/C was 91.9%.

What about the viability, T/C [12] of the same compound?
Its viability, T/C is 91.3%.

What about the viability, T/C [13] of the same compound?
The viability, T/C was 104%.

What about the viability, T/C [14] of the same compound?
The viability, T/C was 100%.

What about the viability, T/C [15] of the same compound?
The viability, T/C was 103%.

And the viability, T/C [16]?
Its viability, T/C is 91.2%.

What about the viability, T/C [17] of the same compound?
Its viability, T/C is 98.5%.

And the viability, T/C [18]?
Its viability, T/C is 87.7%.

What about the viability, T/C [19] of the same compound?
Its viability, T/C is 101%.

And the viability, T/C [20]?
Its viability, T/C is 106%.

What about the viability, T/C [21] of the same compound?
The viability, T/C was 97%.

And the viability, T/C [22]?
The viability, T/C was 99.9%.

And the viability, T/C [23]?
The viability, T/C was 97.5%.

What about the viability, T/C [24] of the same compound?
The viability, T/C was 91.5%.

And the viability, T/C [25]?
The viability, T/C was 88.6%.

What about the viability, T/C [26] of the same compound?
The viability, T/C was 93%.

And the viability, T/C [27]?
Its viability, T/C is 99.4%.

What about the viability, T/C [28] of the same compound?
Its viability, T/C is 89.1%.

And the viability, T/C [29]?
Its viability, T/C is 99.1%.

And the viability, T/C [30]?
The viability, T/C was 77.8%.

What about the viability, T/C [31] of the same compound?
The viability, T/C was 86%.

And the viability, T/C [32]?
The viability, T/C was 92.3%.

And the viability, T/C [33]?
Its viability, T/C is 92.6%.

What about the viability, T/C [34] of the same compound?
The viability, T/C was 86.4%.

What about the viability, T/C [35] of the same compound?
The viability, T/C was 88.6%.

And the viability, T/C [36]?
Its viability, T/C is 72.8%.

How did the IC50 (second compound 0.00316 µM) turn out when `C=CC(=O)N1CCN(c2nc(=O)n(-c3c(C)ccnc3C(C)C)c3nc(-c4c(O)cccc4F)c(F)cc23)C(C)C1` (centres undefined) + CC(Nc1ccc2c(c1)OCCn1cc(N3C(=O)OCC3C(F)F)nc1-2)C(N)=O was run?
Its IC50 is 3.53 µM.

What about the IC50 (second compound 0.01 µM) of the same compound?
Its IC50 is 3.98 µM.

And the IC50 (second compound 0.0316 µM)?
The IC50 was 3.99 µM.

What about the IC50 (second compound 0.1 µM) of the same compound?
The IC50 was 3.02 µM.

What about the IC50 (second compound 0.316 µM) of the same compound?
Its IC50 is 2.2 µM.

And the IC50 (second compound 1 µM)?
Its IC50 is 1.87 µM.

And the viability, T/C [1]?
The viability, T/C was 108%.

And the viability, T/C [2]?
Its viability, T/C is 92.8%.

And the viability, T/C [3]?
The viability, T/C was 95.1%.

And the viability, T/C [4]?
The viability, T/C was 76.7%.

What about the viability, T/C [5] of the same compound?
Its viability, T/C is 50.8%.

What about the viability, T/C [6] of the same compound?
The viability, T/C was 31.1%.

And the viability, T/C [7]?
Its viability, T/C is 108%.

What about the viability, T/C [8] of the same compound?
The viability, T/C was 95.8%.

And the viability, T/C [9]?
The viability, T/C was 110%.

And the viability, T/C [10]?
The viability, T/C was 83.8%.

What about the viability, T/C [11] of the same compound?
Its viability, T/C is 56.5%.

And the viability, T/C [12]?
Its viability, T/C is 28.9%.

What about the viability, T/C [13] of the same compound?
The viability, T/C was 107%.

And the viability, T/C [14]?
The viability, T/C was 97.7%.

What about the viability, T/C [15] of the same compound?
The viability, T/C was 95.5%.

And the viability, T/C [16]?
The viability, T/C was 79.7%.

What about the viability, T/C [17] of the same compound?
Its viability, T/C is 54.1%.

What about the viability, T/C [18] of the same compound?
The viability, T/C was 31%.

And the viability, T/C [19]?
The viability, T/C was 92.4%.

And the viability, T/C [20]?
Its viability, T/C is 100%.

And the viability, T/C [21]?
The viability, T/C was 94.8%.

What about the viability, T/C [22] of the same compound?
The viability, T/C was 82.8%.

What about the viability, T/C [23] of the same compound?
Its viability, T/C is 48.8%.

And the viability, T/C [24]?
The viability, T/C was 24.9%.

What about the viability, T/C [25] of the same compound?
The viability, T/C was 88.7%.

What about the viability, T/C [26] of the same compound?
Its viability, T/C is 97.7%.

What about the viability, T/C [27] of the same compound?
The viability, T/C was 107%.

And the viability, T/C [28]?
Its viability, T/C is 75.4%.

What about the viability, T/C [29] of the same compound?
The viability, T/C was 39.3%.

What about the viability, T/C [30] of the same compound?
The viability, T/C was 25.2%.

What about the viability, T/C [31] of the same compound?
The viability, T/C was 85.6%.

What about the viability, T/C [32] of the same compound?
Its viability, T/C is 92.1%.

What about the viability, T/C [33] of the same compound?
The viability, T/C was 83.7%.

What about the viability, T/C [34] of the same compound?
Its viability, T/C is 67%.

What about the viability, T/C [35] of the same compound?
The viability, T/C was 35.8%.

And the viability, T/C [36]?
Its viability, T/C is 19%.
